In PubChem BioAssay AID256 (DTP/NCI, 2004):
Values joined by “and” are separate entries in the source; they are usually repeats but may differ in a detail not shown here. Equal values may be shown once. Inconclusive results and toxic doses are left out.

System: CD2F1 mice, L1210 leukemia ip, survival T/C
Test: NCI In Vivo Anticancer Drug Screen. Data for tumor model L1210 Leukemia (intraperitoneal) in CD2F1 (CDF1) mice
Conditions: higher = longer survival
How it was run: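 Each value reflects a quotient of treated over vehicle control outcomes in mice with a transplanted tumor.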

[1] = endpoint: mean survival time, dose: 100.0 mg/kg/injection, schedule: Q01DX009 (ip), vehicle: saline with Tween-80
[2] = endpoint: mean survival time, dose: 100.0 mg/kg/injection, schedule: Q04DX003 (ip), vehicle: saline with Tween-80
[3] = endpoint: mean survival time, dose: 200.0 mg/kg/injection, schedule: Q01DX009 (ip), vehicle: saline with Tween-80
[4] = endpoint: mean survival time, dose: 200.0 mg/kg/injection, schedule: Q04DX003 (ip), vehicle: saline with Tween-80
[5] = endpoint: mean survival time, dose: 400.0 mg/kg/injection, schedule: Q01DX009 (ip), vehicle: saline with Tween-80
[6] = endpoint: mean survival time, dose: 400.0 mg/kg/injection, schedule: Q04DX003 (ip), vehicle: saline with Tween-80
[7] = endpoint: mean survival time, dose: 50.0 mg/kg/injection, schedule: Q04DX002 (ip), vehicle: saline with Tween-80
[8] = endpoint: mean survival time, dose: 100.0 mg/kg/injection, schedule: Q01DX001 (ip), vehicle: saline with Tween-80
[9] = endpoint: mean survival time, dose: 200.0 mg/kg/injection, schedule: Q01DX001 (ip), vehicle: saline with Tween-80
[10] = endpoint: mean survival time, dose: 400.0 mg/kg/injection, schedule: Q01DX001 (ip), vehicle: saline with Tween-80
[11] = endpoint: mean survival time, dose: 100.0 mg/kg/injection, schedule: Q04DX002 (ip), vehicle: saline with Tween-80
[12] = endpoint: mean survival time, dose: 200.0 mg/kg/injection, schedule: Q04DX002 (ip), vehicle: saline with Tween-80
[13] = endpoint: mean survival time, dose: 100.0 mg/kg/injection, schedule: Q01DX001 (ip), vehicle: Klucel (hydroxypropylcellulose) (HPC)
[14] = endpoint: mean survival time, dose: 200.0 mg/kg/injection, schedule: Q01DX001 (ip), vehicle: Klucel (hydroxypropylcellulose) (HPC)
[15] = endpoint: mean survival time, dose: 400.0 mg/kg/injection, schedule: Q04DX002 (ip), vehicle: saline with Tween-80

## O=S(=O)(Cc1ccccc1)Cc1ccccc1
[1]
  T/C: 101 % of control
[2]
  T/C: 103 % of control
[3]
  T/C: 98 % of control
[4]
  T/C: 103 % of control
[5]
  T/C: 96 % of control
[6]
  T/C: 102 % of control

## CCCCCCC(C)NCC(O)COc1cccc(C)c1 (stereo not drawn)
endpoint: mean survival time, dose: 12.5 mg/kg/injection, schedule: Q04DX002 (ip), vehicle: saline with Tween-80
  T/C: 101 % of control
endpoint: mean survival time, dose: 25.0 mg/kg/injection, schedule: Q04DX002 (ip), vehicle: saline with Tween-80
  T/C: 96 % of control
[7]
  T/C: 93 % of control

## Cc1ccc(S(=O)(=O)SC(F)(F)F)cc1
endpoint: mean survival time, dose: 5.0 mg/kg/injection, schedule: Q01DX001 (ip), vehicle: saline
  T/C: 106 % of control
endpoint: mean survival time, dose: 10.0 mg/kg/injection, schedule: Q01DX001 (ip), vehicle: saline
  T/C: 104 % of control

## CCCN(CCC)CC(C)O (stereo not drawn)
endpoint: mean survival time, dose: 50.0 mg/kg/injection, schedule: Q01DX009 (ip), vehicle: saline
  T/C: 95 % of control
endpoint: mean survival time, dose: 100.0 mg/kg/injection, schedule: Q01DX009 (ip), vehicle: saline
  T/C: 101 % of control
endpoint: mean survival time, dose: 200.0 mg/kg/injection, schedule: Q01DX009 (ip), vehicle: saline
  T/C: 97 % of control

## C=CC[N+]12CC=C(CO)C1C(O)CC2 (stereo not drawn)
endpoint: mean survival time, dose: 100.0 mg/kg/injection, schedule: Q04DX002 (ip), vehicle: saline
  T/C: 101 % of control
endpoint: mean survival time, dose: 200.0 mg/kg/injection, schedule: Q04DX002 (ip), vehicle: saline
  T/C: 104 % of control
endpoint: mean survival time, dose: 400.0 mg/kg/injection, schedule: Q04DX002 (ip), vehicle: saline
  T/C: 97 % of control

## O=C(/C=C/c1ccccc1)NC1CC1
[8]
  T/C: 94 % of control
[9]
  T/C: 89 % of control
[10]
  T/C: 93 % of control

## CC(=O)NC(C(=O)O)=C(C)C
[1]
  T/C: 96 % of control
[3]
  T/C: 105 % of control
[5]
  T/C: 96 % of control

## OCCOCCN1CCN(CCCN2c3ccccc3Sc3ccc(C(F)(F)F)cc32)CC1
endpoint: mean survival time, dose: 6.25 mg/kg/injection, schedule: Q01DX009 (ip), vehicle: saline
  T/C: 121 % of control

## CCCCOC(=O)Cc1c(C)[nH]c2ccc(-c3ccccc3)cc12
[7]
  T/C: 102 % of control
[11]
  T/C: 102 % of control
[12]
  T/C: 97 % of control

## COc1cc(Cl)ccc1NC(=O)Oc1ccc([N+](=O)[O-])cc1
endpoint: mean survival time, dose: 50.0 mg/kg/injection, schedule: Q01DX009 (ip), vehicle: saline with Tween-80
  T/C: 96 % of control
[1]
  T/C: 96 % of control
[3]
  T/C: 100 % of control

## CC[P+]1(c2ccccc2)CCCc2ccc3ccccc3c21 (stereo not drawn)
endpoint: mean survival time, dose: 12.5 mg/kg/injection, schedule: Q04DX003 (ip), vehicle: saline
  T/C: 117 % of control
endpoint: mean survival time, dose: 25.0 mg/kg/injection, schedule: Q04DX003 (ip), vehicle: saline
  T/C: 110 % of control

## c1ccc(-c2cc3ccccc3c(-c3ccccc3)c2-c2ccccc2)cc1
endpoint: mean survival time, dose: 150.0 mg/kg/injection, schedule: Q01DX001 (ip), vehicle: other
  T/C: 90 % of control
endpoint: mean survival time, dose: 300.0 mg/kg/injection, schedule: Q01DX001 (ip), vehicle: other
  T/C: 88 % of control

## C1=C[N-]c2c3c(ccc2=C1)=CC=C[N-]3.C1=C[N-]c2c3c(ccc2=C1)=CC=C[N-]3.[Cl][Ru][Cl]
endpoint: mean survival time, dose: 3.13 mg/kg/injection, schedule: Q04DX003 (ip), vehicle: water
  T/C: 90 % of control
endpoint: mean survival time, dose: 6.25 mg/kg/injection, schedule: Q04DX003 (ip), vehicle: water
  T/C: 90 % of control
endpoint: mean survival time, dose: 12.5 mg/kg/injection, schedule: Q04DX003 (ip), vehicle: water
  T/C: 88 % of control

## Nc1ccc(C(=O)O)c([N+](=O)[O-])c1
[13]
  T/C: 96 % of control
[14]
  T/C: 100 % of control
endpoint: mean survival time, dose: 400.0 mg/kg/injection, schedule: Q01DX001 (ip), vehicle: Klucel (hydroxypropylcellulose) (HPC)
  T/C: 100 % of control

## Cc1csc2ncnc(Cl)c12
[8]
  T/C: 101 % of control
[9]
  T/C: 97 % of control
[10]
  T/C: 97 % of control

## CC(=O)OC1CCCCC1C (stereo not drawn)
[1]
  T/C: 105 % of control
[2]
  T/C: 105 % of control
[3]
  T/C: 100 % of control
[4]
  T/C: 110 % of control
[6]
  T/C: 102 % of control

## CCCCNC(=O)c1ccc2c(c1)C(=O)N(CCCC)C2=O
[11]
  T/C: 101 % of control
[12]
  T/C: 104 % of control
[15]
  T/C: 93 % of control

## CC(CCC(C)OS(C)(=O)=O)OS(C)(=O)=O (stereo not drawn)
endpoint: mean survival time, dose: 4.0 mg/kg/injection, schedule: Q01DX009 (ip), vehicle: saline
  T/C: 118 % of control and 107 % of control
endpoint: mean survival time, dose: 8.0 mg/kg/injection, schedule: Q01DX009 (ip), vehicle: saline
  T/C: 110 % of control

## CC[N+](CC)(CCOc1ccc(C(C)(C)CC(C)(C)C)cc1)Cc1ccccc1
endpoint: mean survival time, dose: 5.0 mg/kg/injection, schedule: Q04DX003 (ip), vehicle: saline
  T/C: 102 % of control

## CC(C)(C)c1ccc(OCC(=O)O)cc1
endpoint: mean survival time, dose: 100.0 mg/kg/injection, schedule: Q04DX003 (ip), vehicle: other
  T/C: 100 % of control
endpoint: mean survival time, dose: 200.0 mg/kg/injection, schedule: Q04DX003 (ip), vehicle: other
  T/C: 101 % of control

## CC(=O)Nc1ccc(/C=C2\N=C(c3cccc([N+](=O)[O-])c3)OC2=O)cc1
[11]
  T/C: 100 % of control
[12]
  T/C: 100 % of control
[15]
  T/C: 91 % of control

## CO[C@@]12[C@@H]3N[C@@H]3CN1C1=C(C(=O)C(Nc3cccc(O)c3)=C(C)C1=O)[C@@H]2COC(N)=O
endpoint: median survival time, dose: 1.5 mg/kg/injection, schedule: Q01DX001 (ip), vehicle: water
  T/C: 113 % of control
endpoint: median survival time, dose: 3.0 mg/kg/injection, schedule: Q01DX001 (ip), vehicle: water
  T/C: 119 % of control
endpoint: median survival time, dose: 12.0 mg/kg/injection, schedule: Q01DX001 (ip), vehicle: water
  T/C: 122 % of control

## O=S(=O)(CS(=O)(=O)Nc1ccccc1)Nc1ccccc1
[2]
  T/C: 109 % of control

## CCSc1ncc(Br)c(Sc2nc(N)nc3nc[nH]c23)n1
endpoint: mean survival time, dose: 6.25 mg/kg/injection, schedule: Q01DX Z (ip), vehicle: carboxymethylcellulose (CMC)
  T/C: 154 % of control
endpoint: mean survival time, dose: 12.5 mg/kg/injection, schedule: Q01DX Z (ip), vehicle: carboxymethylcellulose (CMC)
  T/C: 100 % of control
endpoint: mean survival time, dose: 25.0 mg/kg/injection, schedule: Q01DX Z (ip), vehicle: carboxymethylcellulose (CMC)
  T/C: 98 % of control
endpoint: mean survival time, dose: 50.0 mg/kg/injection, schedule: Q01DX Z (ip), vehicle: carboxymethylcellulose (CMC)
  T/C: 87 % of control

## CC(=O)CC(=O)N1CCN(C(=O)CC(C)=O)CC1
endpoint: mean survival time, dose: 100.0 mg/kg/injection, schedule: Q04DX003 (ip), vehicle: saline
  T/C: 98 % of control
endpoint: mean survival time, dose: 200.0 mg/kg/injection, schedule: Q04DX003 (ip), vehicle: saline
  T/C: 96 % of control
endpoint: mean survival time, dose: 400.0 mg/kg/injection, schedule: Q04DX003 (ip), vehicle: saline
  T/C: 98 % of control

## CC1=CC(=O)CC(C)C2CC(C(C)C)CC12 (stereo not drawn)
endpoint: mean survival time, dose: 100.0 mg/kg/injection, schedule: Q01DX001 (ip), vehicle: saline
  T/C: 101 % of control
endpoint: mean survival time, dose: 200.0 mg/kg/injection, schedule: Q01DX001 (ip), vehicle: saline
  T/C: 100 % of control
endpoint: mean survival time, dose: 400.0 mg/kg/injection, schedule: Q01DX001 (ip), vehicle: saline
  T/C: 105 % of control

## Nc1nc2c(ncn2-c2cccc(NC(=O)Nc3ccc(S(=O)(=O)F)c(Cl)c3)c2)c(=O)[nH]1 (tested in a mixture with another compound)
[8]
  T/C: 97 % of control
[9]
  T/C: 95 % of control

## c1coc(-c2nc3ccccc3s2)c1
endpoint: mean survival time, dose: 50.0 mg/kg/injection, schedule: Q01DX001 (ip), vehicle: Klucel (hydroxypropylcellulose) (HPC)
  T/C: 96 % of control
[13]
  T/C: 93 % of control and 95 % of control
[14]
  T/C: 120 % of control and 90 % of control

## Cc1cccnc1Br
endpoint: mean survival time, dose: 12.5 mg/kg/injection, schedule: Q01DX009 (ip), vehicle: water
  T/C: 95 % of control
endpoint: mean survival time, dose: 25.0 mg/kg/injection, schedule: Q01DX009 (ip), vehicle: water
  T/C: 103 % of control
endpoint: mean survival time, dose: 50.0 mg/kg/injection, schedule: Q01DX009 (ip), vehicle: water
  T/C: 95 % of control
endpoint: mean survival time, dose: 100.0 mg/kg/injection, schedule: Q01DX009 (ip), vehicle: water
  T/C: 95 % of control
endpoint: mean survival time, dose: 200.0 mg/kg/injection, schedule: Q01DX009 (ip), vehicle: water
  T/C: 88 % of control
